Data: US20080176787A1, “Parathyroid hormone analogues and methods of use” (priority 2005, published 2008)
Positions of bridges follow the written chain, without caps; N, C: chain ends. Residues, ends and D or L forms follow the SMILES beside them.

Experiments:
monkey = assay: Toxicity, 12 mth monkey; type: in vivo
Excerpt: (§1) A NoAEL was not established for the monkey. […] Ostabolin-C™ is at least 4-fold safer than PTH-(1-34).

Toxicity, 12 mth monkey = type: in vivo; settings: in vivo; Ostabolin C, 12 mth monkey
Excerpt: as §1

[1] = system: post-menopausal women with low bone mineral density; assay: Dose/weight cutoff subgroup analysis and modeling of Phase II 30 and 45 μg cohorts; type: in vivo, human; settings: for Headache / HyperCa > 2.65 / HyperCa > 2.75 / N + H / Nausea: unit assumed
Experimental: The effect of the dose optimization strategy was evaluated by performing subgroup analyses using actual data from the 30 and 45 μg cohorts of the study (i.e. creation of a new subgroup by combining all patients below the weight cutoff from the 30 μg dose group with all patients above the weight cutoff from the 45 μg dose group, shown in the table below).
A variety of new subgroups were created out of the patients who participated in the Phase II clinical trial. The groups from Phase II are shown above, where each group received a single dose, either 7.5 μg, 15 μg, 30 μg, 45 μg, or placebo. The 30 μg and 45 μg dose groups were re-grouped, according to the weight of the patient, and over 100 new sub-groups were created. This approach of creating new sub-groups out of dosages which are relatively close to each other, is a novel way of conducting Phase II studies.
For the 105 patients who were originally given 30 or 45 μg, new groups were created by utilizing multiple weight cut-offs in increments of 0.5 kg. For example, one new group had the weight cut-off at 59 kg, meaning that every patient from the original low dose (30 μg) group who weighed less than 59 kg and every patient who weighed more than 59 kg from the original high dose (45 μg) group formed a new cohort. This new cohort represents a dose/weight cut-off of 59 kg, a group in which patients weighing less than 59 kg receive the low dose (30 μg) and patients weighing more than 59 kg receive the high dose (45 μg). Another example can be illustrated using a weight cutoff of 68 kg. Such a group would include all those patients who weigh less than 68 kg and who originally received the low dose (30 μg) as well as all those patients who weigh more than 68 kg and who originally received the high dose (45 μg). By using this method, over 100 separate cohorts were created by altering the dose/weight cut-off in increments of 0.5 kg. A summary of the data generated by these new dose/weight cut-off cohorts, using 68 kg and 59 kg as the dose/weight cut-off, is shown in the table below.
The table above illustrates the actual clinical profile obtained for two dose/weight cutoffs (59 kg which produces a higher exposure profile since more patients receive the higher dose and 68 kg in which more patients receive the lower dose). […] One problem with simple subgroup analysis is that endpoints with a small number of events can skew the observed profile because of large changes in incidence when one of these events moves from one side of the weight cutoff to the other. Therefore, the dose/weight cutoff methodology was applied systematically to the data from the 30 and 45 μg dose groups starting at the lowest weight patient in the study (corresponds to the 45 μg profile because everyone receives the high dose) and increasing the cutoff by 0.5 kg increments through 100 kg (corresponding to the 30 μg profile because everyone receives the low dose). The multiple cutoff profiles thus obtained when graphed can then smooth out the effect of individual events as illustrated for the effect on hypercalcemia. The effect of weight cutoff on clinical profile can then be modeled to eliminate the skewing effects of individual data points as illustrated in FIG. 37-40. This approach has been applied to primary and secondary endpoints in the study.
An important benefit of this modeling is that it is possible to project a clinical profile for a specific weight cutoff/dose exposure window with a high degree of accuracy since the effect of individual events is eliminated. The anticipated hypercalcemia and lumbar spine BMD profile for a 68 kg cutoff is illustrated in the table below, which compares the modeled hypercalcemia and lumbar spine BMD changes and the actual Phase II data for the 68 kg weight cutoff. It will also be possible to model the effects of even narrower exposure windows by using multiple dose cutoffs and different doses.

rats = assay: Rat oncogenicity study, 104 weeks subcutaneous; type: in vivo; settings: 0.5, 5, 30, and 50 μg/kg/day SC
Experimental: Prior art PTHs cause osteosarcomas in animals if administered over a course of two years. The PTH peptides of the present invention, including Ostabolin-C™ and PTH 1-30, are administered subcutaneously to rats for 104 weeks at doses of 0.5, 5, 30, and 50 μg/kg/day. The test article is administered subcutaneously. […] This difference could be due to the different amino acids sequences and/or to the different signalling pathways activated by the PTH molecules.

[2] = system: Gonad intact young Cynomolgus monkeys; assay: 6-week daily study in gonad intact young cynomolgus monkeys: % cortical porosity; type: in vivo; settings: Tibial Mid-Diaphysis, 6 weeks
Excerpt: Comparative data regarding increase in cortical bone porosity in monkey subjects using Ostabolin C at a variety of doses and using the prior art PTHs 1-34 is shown below.

[3] = system: post-menopausal women with low bone mineral density; settings: human, in vivo
Excerpt: A four month Phase II clinical study was undertaken to investigate the safety, tolerability and efficacy of Ostabolin-C™ in post-menopausal women with low bone mineral density (BMD). […] The clinical protocol is a 16-week phase II randomized, double-blind, placebo-controlled, parallel group, dose finding study to investigate the safety, tolerability and efficacy of Ostabolin-C™ in post-menopausal women with low bone mineral density (BMD). In this study, 261 patients underwent four months of daily dosing of placebo and four active groups. The active groups included daily administration of Ostabolin-C™ in doses of 7.5, 15, 30, and 45 μg. Ostabolin-C™ is formulated as a clear, colorless liquid provided in pre-filled syringes and injected subcutaneously (SC). Subjects self-administer SC 0.1 mL injections of their assigned dose of Ostabolin-C™ 7.5, 15, 30, and 45 μg or placebo daily for 16 weeks in rotating quadrants of the abdomen. The subjects were post-menopausal women (for at least 5 years) with moderate osteoporosis.
The key endpoints for the study include change in mean BMD at the lumbar spine, as assessed by dual energy x-ray absorptiometry (DEXA), and measured by change from the Baseline visit. The Baseline visit is the first visit of the patient, before undergoing any treatment. Secondary efficacy endpoints include the following, as measured by change from Baseline visit:
DEXA: Bone formation and resorption markers: • Mean femoral neck BMD • Serum osteocalcin • Mean trochanter BMD • Serum amino terminal pro-peptide of type 1 pro-collagen (P1NP) • Mean total hip BMD • Mean radial BMD (distal and midshaft) • Bone specific alkaline phosphatase (BSAP) • Bone mineral content (BMC) • Serum C-telopeptide (CTx) • Bone area • Serum N-telopeptide (NTx)

CC[C@H](C)[C@H](NC(=O)[C@H](CCC(=O)O)NC(=O)[C@H](CO)NC(=O)[C@@H](NC(=O)[C@@H](N)CO)C(C)C)C(=O)N[C@@H](CCC(N)=O)C(=O)N[C@@H](CC(C)C)C(=O)N[C@@H](CCSC)C(=O)N[C@@H](Cc1c[nH]cn1)C(=O)N[C@@H](CC(N)=O)C(=O)N[C@@H](CC(C)C)C(=O)NCC(=O)N[C@@H](CCCCN)C(=O)N[C@@H](Cc1c[nH]cn1)C(=O)N[C@@H](CC(C)C)C(=O)N[C@@H](CC(N)=O)C(=O)N[C@@H](CO)C(=O)N[C@@H](CCSC)C(=O)N[C@@H](CCC(=O)O)C(=O)N[C@@H](CCCN=C(N)N)C(=O)N[C@H](C(=O)N[C@H]1CCC(=O)NCCCC[C@@H](C(=O)N[C@@H](CC(C)C)C(=O)N[C@@H](CC(C)C)C(=O)N[C@@H](CCC(N)=O)C(=O)N[C@@H](CC(=O)O)C(=O)N[C@H](C(N)=O)C(C)C)NC(=O)[C@H](CCCN=C(N)N)NC(=O)[C@H](CC(C)C)NC(=O)[C@H](Cc2c[nH]c3ccccc23)NC1=O)C(C)C [Ostabolin-C, [Leu^27]cyclo[Glu^22-Lys^26]-PTH-(1-31)-NH2] (H-SVSEIQLMHNLGKHLNSMERVEWLRKLLQDV-NH2; lactam 22-26)
fold less nephrotoxic than PTH-(1-34) (monkey; 12 mth monkey): >4-fold less
hypercalaemic (DIFFERENCES column) (monkey; 12 mth monkey): Ostabolin-C not
Bone hypertrophy (monkey; Ostabolin C 0, 2, 10, 25 μg/kg, 12 mth monkey): hypertrophy all
fold safer than PTH-(1-34) (monkey; pre-clinical toxicity): at least 4 fold
nephrotoxicity (monkey; pre-clinical toxicity): nephrotoxic only in monkeys
NOAEL at 12 mth (Toxicity, 12 mth monkey): 2 µg/kg
% of hypercalcemia ([1]; 4 months, weight cutoff of approximately 68 kg (FIG. 37)): less than 15%
Sitting HR ([1]; 59 kg cut): 4.1
Headache ([1]; 59 kg cut): 20.6%
HyperCa > 2.65 ([1]; 59 kg cut): 22%
HyperCa > 2.75 ([1]; 59 kg cut): 6%
N + H ([1]; 59 kg cut): 12.7%
Nausea ([1]; 59 kg cut): 31.7%
Sitting HR ([1]; 68 kg cut): 3.1
Headache ([1]; 68 kg cut): 12.8%
HyperCa > 2.65 ([1]; 68 kg cut): 12.8%
HyperCa > 2.75 ([1]; 68 kg cut): 7.7%
N + H ([1]; 68 kg cut): 10.6%
Nausea ([1]; 68 kg cut): 31.9%
HyperCa > 2.65 ([1]; 68 kg cutoff, modeled): 14.8%
HyperCa > 2.75 ([1]; 68 kg cutoff, modeled): 7.6%
incidence of osteosarcomas compared to prior art PTH peptides (rats): lower incidences of osteosarcomas
% Cortical Porosity ([2]; F, 10 μg/kg/day): 3.2 ± 0.97%
% Cortical Porosity ([2]; F, 25 μg/kg/day): 4.0 ± 1.25%
% Cortical Porosity ([2]; F, 80 μg/kg/day): 10.6 ± 0.35%
% Cortical Porosity ([2]; M, 10 μg/kg/day): 3.7 ± 0.70%
% Cortical Porosity ([2]; M, 25 μg/kg/day): 5.8 ± 1.82%
% Cortical Porosity ([2]; M, 80 μg/kg/day): 16.4 ± 7.14 %
Pts > 2.75 mmol/L (sustained) [3]: 0
